Like-named read-outs stand apart in the source and are kept apart here. Values belong to the molecule of their own block, whether it stands above or below them.
Assays:
[1] = target: T1, GalNAc-T4 lectin domain (T4ld) (Homo sapiens, UniProt Q8N4A0); test: Direct binding ELISA to GalNAc-MUC1 glycopeptide, competitive inhibition, T4ld
T1 construct: made in house; host or cells: High Five insect cells (baculovirus, pAcGP67-A)
Procedure: (§1) Protein biotinylation was made as previously reported^62. The pH of 1 ml purified protein (0.3 mg/ml) in PBS was adjusted to pH 9 with 1 M NaOH and 40 μl N-hydroxy-succinimidobiotin (Sigma) dissolved in DMF (10 mg/ml) was added. The solution was mixed end-over-end for 2 hours at room temperature, and dialyzed three times against PBS and an equal volume of glycerol was added. The biotinylated proteins were stored at −20° C. in 50% glycerol until use.
(§2) Direct binding ELISA assay was developed as follows: Polystyrene microtiter plates (Maxisorb, Nunc, Denmark) were coated with peptides or enzymatically glycosylated glycopeptides in PBS overnight at 4° C. Plates were washed and blocked with 0.1% Tween20 and 0.2% BSA in PBS for 1 h at room temperature, followed by incubation with biotinylated proteins in PBS with 0.05% Tween20 for 2 h at room temperature. After four washes with PBS, plates were incubated with 1:2,000 dilution streptavidin-HRP (Sigma) in PBS for 30 min at room temperature and washed four times with PBS. Development was performed with 0.5 mg/ml o-phenylenediamine and 0.02% H2O2 at room temperature for 15 min, and reaction stopped by adding 100 μl/well of 0.5 N H2SO4. Competitive inhibition assays were done at end-point titers of GalNAc-transferase proteins with one hour preincubations with inhibitor.
(§3) In binding studies using lectins without biotinylation antibodies to the HIS-tag and the T7-tag, or in some experiments antibodies raised to GalNAc-T2 and -T4 enzymes were used to detect binding.

[2] = target: T2, secreted soluble GalNAc-T4 (sT4) (Homo sapiens, UniProt Q8N4A0); test: Direct binding ELISA to GalNAc-MUC1 glycopeptide, competitive inhibition, sT4; conditions: binding to GalNAc-MUC1 glycopeptide
T2 construct: using the GalNAc-T4-sol construct that encodes residues 32-578 inserted into pT7T3U19; 6xHis (N); thrombin cleavage site (N); T7 tag (N); made in house; host or cells: High Five insect cells (baculovirus)
Procedure: as §1, §2, §3

[3] = target: T3, GalNAc-T2 lectin domain (T2ld) (Homo sapiens, UniProt Q10471); test: Direct binding ELISA to GalNAc-MUC1 glycopeptide, competitive inhibition, T2ld
T3 construct: made in house; host or cells: High Five insect cells (baculovirus, pAcGP67-A)
T3 sequence (Q10471 408-571): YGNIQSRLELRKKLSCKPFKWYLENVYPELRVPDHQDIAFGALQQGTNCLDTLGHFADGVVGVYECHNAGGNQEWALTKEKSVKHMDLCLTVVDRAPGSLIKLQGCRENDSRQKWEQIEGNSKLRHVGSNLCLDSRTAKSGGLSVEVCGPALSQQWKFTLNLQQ
Procedure: as §1, §2, §3

[4] = target: T4, secreted soluble GalNAc-T2 (sT2) (Homo sapiens, UniProt Q10471); test: Direct binding ELISA to GalNAc-MUC1 glycopeptide, competitive inhibition, sT2
T4 construct: HIS-tagged secreted human GalNAc-T2 and -T4 were prepared from pAC-GP67-T2-sol and pAC-GP67-T4-sol cDNA; 6xHis (N); thrombin cleavage site (N); T7 tag (N); made in house; host or cells: High Five insect cells (baculovirus)
Procedure: as §1, §2, §3

[5] = target: Helix Pomatia lectin (HPA) (Helix pomatia, UniProt Q2F1K8); test: Direct binding ELISA, competitive inhibition, Helix Pomatia lectin control; conditions: read-out: Concentration required for 50% inhibition (IC50), HPA; control plant lectin
From the text: Glycopeptides were purified by C-18 reverse phase HPLC. Peptides were custom synthesized by Neosystems (Strasbourg). Biotinylated Helix Pomatia lectin (HPA) was from KemEnTec (Denmark). Anti-MUC1 HMFG2 monoclonal antibody was a generous gift from Joyce Taylor-Papadimitriou. Anti-MUC1 SE5 monoclonal antibody was developed by immunizing Balb/c mice with 60-mer MUC1 tandem repeat peptide glycosylated with 5 moles GalNAc per repeat. Monoclonal antibodies to the lectin domains of human GalNAc-T2 and -T4 were developed as previously described^8, 63.
as §2
Inhibition experiments were used to further define the binding specificity of GalNAc-T2 and -T4 secreted soluble enzymes as well as lectin domains compared to Helix Pomatia lectin (Table VII).

GalNAc-T4 = target: T5, GalNAc-T4 (Homo sapiens, UniProt Q8N4A0); test: Inhibition of glycosylation dependent (GalNAc-glycopeptide) activity of GalNAc-T4, MALDI-TOF time-course; assay type: biochemical; conditions: […] free sugar
T5 construct: using the GalNAc-T4-sol construct that encodes residues 32-578 inserted into pT7T3U19; made in house; host or cells: High Five insect cells (baculovirus, pAcGP67)
Procedure: MALDI-TOF time-course in terminal reactions were performed in reactions of 25 μl containing 2.5 nmol acceptor (glyco)peptide, 40 nmol UDP-GalNAc, and 0.4 μg GalNAc-T4. Sampling of reactions (1 μl) were purified by nano-scale reversed-phase chromatography (Poros R3, PerSeptive Biosystem) and applied directly to the probe with matrix (41). The amount of GalNAc-transferase added was adjusted so that the reaction with the appropriate peptide was near completion in six hours. Reactions were incubated at 37° C. in a shaker bath. At times 0, 2 hours, and 16 hours a 1 μl aliquot was taken and purified. Mass spectra were acquired on either Voyager-DE mass spectrometer equipped with delayed extraction (Perseptive Biosystem Inc.). The matrix used was 2,5-dihydroxybenzoic acid (10 mg/ml, Hewlett-Packard) dissolved in a 2:1 mixture of 0.1% trifluoroacetic acid in 30% aqueous acetonitrile (Rathburn Ltd.).
Quantification of purified proteins was done by Coomassie stained SDS-PAGE and titration of immunoreactivity with the monoclonal antibody, UH6(4G2) (8). […] Wild-type GalNAc-T4 and mutant GalNAc-T4, GalNAc-T4^459H, were analysed with unglycosylated peptides (represented by PSGL-1) or GalNAc glycosylated glycopeptides (represented by GalNAc3TAP25V21) in reactions of 25 μl containing 2.5 nmol acceptor (glyco)peptide, 40 nmol UDP-GalNAc, and 0.4 μg GalNAc-T4. Time-course assays were motioned by MALDI-TOF. Sampling of reactions (1 μl) were purified by nano-scale reversed-phase chromatography (Poros R3, PerSeptive Biosystem) and applied directly to the probe with matrix. Evaluation of inhibition of the glycopeptide specificity of wild-type GalNAc-T4 with free sugars was performed to establish if the lectin domain recognized carbohydrate. […] Further, analysis was performed with 10 mM α-D-GalNAc-1-benzyl, αGlcNAc-benzyl, and fully occupied GalNAc-glycopeptide, GalNAc6TAP25, at 5 mM.

[6] = read-out: Concentration required for 50% inhibition (IC50), T4ld
[7] = read-out: Concentration required for 50% inhibition (IC50), sT4
[8] = read-out: Concentration required for 50% inhibition (IC50), T2ld
[9] = read-out: Concentration required for 50% inhibition (IC50), sT2

SMILES: COC1O[C@H](CO)[C@H](O)[C@H](O)[C@H]1O (single isomer, unassigned) [MeβGal]
IC50 [1]: > 100 mM
IC50 [2]: 40 mM
IC50 [3]: > 100 mM
IC50 [4]: > 100 mM

SMILES: CC(=O)N[C@H]1[C@H](OCc2ccccc2)O[C@H](CO)[C@@H](O)[C@@H]1O [BzlβGlcNAc]
IC50 [1]: > 100 mM
IC50 [2]: > 100 mM
IC50 [3]: > 100 mM
IC50 [5]: > 20 mM
IC50 [4]: > 100 mM

Inhibition of glycosylation dependent specificity of GalNAc-T4 (GalNAc-T4): failed to show significant inhibition
SMILES: C[C@@H]1OC(O)[C@@H](O)[C@H](O)[C@@H]1O (stereo partly drawn) [Fuc]

Inhibition of glycosylation dependent specificity of GalNAc-T4 (GalNAc-T4): failed to show significant inhibition
SMILES: OC[C@H]1OC(O)[C@H](O)[C@@H](O)[C@H]1O (stereo partly drawn) [Gal]

Inhibition of glycosylation dependent specificity of GalNAc-T4 (GalNAc-T4): failed to show significant inhibition
IC50 [1, 6]: > 100 mM
IC50 [2, 7]: > 100 mM
IC50 [3, 8]: > 100 mM
IC50 [5]: 8 mM
IC50 [4, 9]: > 100 mM
SMILES: CC(=O)N[C@H]1C(O)O[C@H](CO)[C@@H](O)[C@@H]1O (stereo partly drawn) [GlcNAc]

SMILES: CO[C@H]1O[C@H](CO)[C@H](O)[C@H](O)[C@H]1O [MeαGal]
IC50 [1, 6]: > 100 mM
IC50 [2, 7]: 50 mM
IC50 [3, 8]: > 100 mM
IC50 [5]: > 100 mM
IC50 [4, 9]: > 100 mM

IC50 [3, 8]: 15 mM
IC50 [5]: 1 mM
SMILES: CC(=O)N[C@H]1[C@@H](Oc2ccccc2)O[C@H](CO)[C@H](O)[C@@H]1O [PhlαGalNAc]

Source: patent US7338932B2, “Methods of modulating functions of polypeptide GalNAc-transferases and of screening test substances to find agents herefor, pharmaceutical compositions comprising such agents and the use of such agents for preparing medicaments” (Glycozym APS, priority 2000, dated 2008)
